Test results taken from patent US20260347403A1, “FUNGICIDAL COMPOUND” (priority 2022, published 2026).
Read-outs that look alike come from different tables or passages of the source. Numbered stars: 1 amine (or outer) side, 2 acyl side, 3 side chain; on linkers, the order of the positions; unused ones are H or OH. Bridge positions count the residues as written; N and C are the ends. Square brackets hold non-standard residues; d marks the D form. Peptide text beside a SMILES is read from it. * marks the point of attachment. Tridecanoyl(12-Me) = CC(C)CCCCCCCCCCC(=O)*; X1 = NC(=O)CC(O)C(N[*:1])C(=O)[*:2]; NMeF = CN[CH](Cc1ccccc1)C(=O)O; NMeN = CN[CH](CC(N)=O)C(=O)O; X2 = CCC(C)CCCCCCCCCCC(=O)*

Legend:
Zymoseptoria tritici = test: Liquid culture, Zymoseptoria tritici (Septoria tritici), Septoria leaf blotch, 4-5 days; assay type: cell-based; settings: Zymoseptoria tritici, read-out: % reduction fungal growth
Description: (§1) Mycelia fragments or conidia suspensions of a fungus, prepared either freshly from liquid cultures of the fungus or from cryogenic storage, were directly mixed into nutrient broth.
(§2) A stock solution for compound of Formula I(a) and Formula I(b) was produced in DMSO (max. 10 mg/ml), which was diluted with water plus 0.025% Tween®20 to produce a 10× concentrated sample and 10 μl of this solution was pipetted into a microtiter plate (96-well format). The nutrient broth containing the fungal spores/mycelia fragments was then added to give an end concentration of the tested compound. The test plates were incubated in the dark at 24 °C and 96% rh. The inhibition of fungal growth was determined photometrically after 2-7 days, depending on the pathosystem, and percent antifungal activity relative to the untreated check was calculated.
(§3) The effect of the test compound (Formula I(a), I(b) and Lipopeptin A) was tested against the following fungi under the conditions as outlined above and specifically herein below:
Zymoseptoria tritici (Septoria tritici)/liquid culture (Septoria leaf blotch) Conidia of the fungus from cryogenic storage were directly mixed into nutrient broth (PDB potato dextrose broth). The inhibition of growth was determined photometrically 4-5 days after application.

[1] = tested on: Puccinia recondita f. sp. tritici; test: Leaf disc/segment test on wheat, Puccinia recondita f. sp. tritici (Brown Rust), 7-9 days after application; assay type: in vivo
Description: (§4) Leaf disks or leaf segments of various plant species were cut from plants grown in the greenhouse. The cut leaf disks, or segments were placed in multiwell plates (24-well format) onto water agar. The leaf disks were sprayed with a test solution before inoculation with the fungal spores. Compounds to be tested were prepared as DMSO solutions (max. 10 mg/ml) which were diluted to the appropriate concentration with water plus 0.025% Tween® 20 just before spraying. The inoculated leaf disks or segments were incubated under defined conditions (temperature, relative humidity, light, etc.) according to the respective test system. A single evaluation of disease level was carried out by visual evaluation 3-9 days days after inoculation, depending on the pathosystem as indicated below. Percent disease control relative to the untreated check leaf disks or segments was then calculated.
Puccinia recondita f. Sp. Tritici/Wheat/Leaf Disc (Brown Rust)
Wheat leaf segments cv. Kanzler were placed on agar in multiwell plates (24-well format) and sprayed with the formulated test compound diluted in water. The leaf disks were inoculated with a spore suspension of the fungus 1 day after application. The inoculated leaf segments were incubated at 19 °C and 75% rh under a light regime of 12 h light/12 h darkness in a climate cabinet and the activity of a compound was assessed as percent disease control compared to untreated when an appropriate level of disease damage appears in untreated check leaf segments (7-9 days after application).

Phaeosphaeria nodorum = test: Leaf disc test on wheat, Phaeosphaeria nodorum (Glume Blotch), 5-7 days after application; assay type: in vivo, Phaeosphaeria nodorum (Septoria nodorum) on wheat; settings: Table 5
Description: as §4
Phaeosphaeria Nodorum (Septoria nodorum)/Wheat/Leaf Disc (Glume Blotch)
Wheat leaf segments cv. Kanzler were placed on agar in a multiwell plate (24-well format) and sprayed with the formulated test compound diluted in water. The leaf disks were inoculated with a spore suspension of the fungus 2 days after application. The inoculated test leaf disks were incubated at 20 °C and 75% rh under a light regime of 12 h light/12 h darkness in a climate cabinet and the activity of a compound was assessed as percent disease control compared to untreated when an appropriate level of disease damage appears in untreated check leaf disks (5-7 days after application)

Pyrenophora teres = test: Leaf disc preventative test on barley, Pyrenophora teres (Net Blotch), 5-7 days after application; assay type: in vivo; settings: Table 5
Description: as §4
Pyrenophora teres/Barley/Leaf Disc Preventative (Net Blotch)
Barley leaf segments cv. Hasso were placed on agar in a multiwell plate (24-well format) and sprayed with the formulated test compound diluted in water. The leaf segments were inoculated with a spore suspension of the fungus 2 days after application. The inoculated leaf segments were incubated at 20 °C and 65% rh under a light regime of 12 h light/12 h darkness in a climate cabinet and the activity of a compound was assessed as disease control compared to untreated when an appropriate level of disease damage appears in untreated check leaf segments (5-7 days after application).

Botryotinia fuckeliana = test: Liquid culture, Botryotinia fuckeliana (Botrytis cinerea), Gray Mould, 3-4 days; assay type: cell-based
Description: as §1, §2, §3
Botryotinia fuckeliana (Botrytis cinerea)/Liquid Culture (Gray Mould)
Conidia of the fungus from cryogenic storage were directly mixed into nutrient broth (Vogels broth). The inhibition of growth is determined photometrically 3-4 days after application.

Pyricularia oryzae = assay type: cell-based; settings: concentrations in Table 8

CCC(C)CCCCCCCCCCC(=O)NC1C(=O)NC(CC(=O)O)C(=O)NC(C(O)CC(N)=O)C(=O)NC(CO)C(=O)N(C)C(CC(N)=O)C(=O)N(C)C(Cc2ccccc2)C(=O)NC(CCC(N)=O)C(=O)NC(CCC(=O)O)C(=O)OC1C (stereo not drawn) [Formula I(b)] (X2-TD[X1]S[NMeN][NMeF]QE; ester 1-C; configuration not given here)
inhibition of growth at 0.41 ppm (Zymoseptoria tritici; Table 2): 0%
inhibition of growth at 1.2 ppm (Zymoseptoria tritici; Table 2): 0%
inhibition of growth at 3.7 ppm (Zymoseptoria tritici; Table 2): 0%
inhibition of growth at 11 ppm (Zymoseptoria tritici; Table 2): 50%
inhibition of growth at 33 ppm (Zymoseptoria tritici; Table 2): 70%
inhibition of growth at 100 ppm (Zymoseptoria tritici; Table 2): 70%
inhibition of growth at 0.41 ppm (Zymoseptoria tritici; Table 3): 0%
inhibition of growth at 1.2 ppm (Zymoseptoria tritici; Table 3): 0%
inhibition of growth at 3.7 ppm (Zymoseptoria tritici; Table 3): 0%
inhibition of growth at 11 ppm (Zymoseptoria tritici; Table 3): 90%
inhibition of growth at 33 ppm (Zymoseptoria tritici; Table 3): 90%
inhibition of growth at 100 ppm (Zymoseptoria tritici; Table 3): 90%
% reduction of fungal growth ([1]; Table 4, 0.82 ppm): 0%
% reduction of fungal growth ([1]; Table 4, 2.5 ppm): 0%
% reduction of fungal growth ([1]; Table 4, 7.4 ppm): 0%
% reduction of fungal growth ([1]; Table 4, 22 ppm): 0%
% reduction of fungal growth ([1]; Table 4, 67 ppm): 45%
% reduction of fungal growth ([1]; Table 4, 200 ppm): 70%
% reduction of fungal growth ([1]; Table 5, 0.82 ppm): 0%
% reduction of fungal growth ([1]; Table 5, 2.5 ppm): 0%
% reduction of fungal growth ([1]; Table 5, 7.4 ppm): 0%
% reduction of fungal growth ([1]; Table 5, 22 ppm): 35%
% reduction of fungal growth ([1]; Table 5, 67 ppm): 70%
% reduction of fungal growth ([1]; Table 5, 200 ppm): 95%
% reduction of fungal growth (Phaeosphaeria nodorum; 0.82 ppm): 0%
% reduction of fungal growth (Phaeosphaeria nodorum; 2.5 ppm): 0%
% reduction of fungal growth (Phaeosphaeria nodorum; 7.4 ppm): 0%
% reduction of fungal growth (Phaeosphaeria nodorum; 22 ppm): 0%
% reduction of fungal growth (Phaeosphaeria nodorum; 67 ppm): 0%
% reduction of fungal growth (Phaeosphaeria nodorum; 200 ppm): 0%
% reduction of fungal growth (Pyrenophora teres; 0.82 ppm): 0%
% reduction of fungal growth (Pyrenophora teres; 2.5 ppm): 0%
% reduction of fungal growth (Pyrenophora teres; 7.4 ppm): 0%
% reduction of fungal growth (Pyrenophora teres; 22 ppm): 0%
% reduction of fungal growth (Pyrenophora teres; 67 ppm): 90%
% reduction of fungal growth (Pyrenophora teres; 200 ppm): 90%
% reduction fungal growth (Botryotinia fuckeliana; Table 2, 0.41 ppm): 0%
% reduction fungal growth (Botryotinia fuckeliana; Table 2, 1.2 ppm): 0%
% reduction fungal growth (Botryotinia fuckeliana; Table 2, 3.7 ppm): 0%
% reduction fungal growth (Botryotinia fuckeliana; Table 2, 11 ppm): 0%
% reduction fungal growth (Botryotinia fuckeliana; Table 2, 33 ppm): 0%
% reduction fungal growth (Botryotinia fuckeliana; Table 2, 100 ppm): 50%
% reduction fungal growth (Botryotinia fuckeliana; Table 3, 11 ppm): 50%
% reduction fungal growth (Botryotinia fuckeliana; Table 3, 33 ppm): 50%
% reduction fungal growth (Botryotinia fuckeliana; Table 3, 100 ppm): 70%

NC[C@@H]1NC(=O)C(C(=O)CC(NC(=O)[C@@H](N)CO)(C(=O)O)C(=O)O)=C1O [malonomicin, {[(2S)-2-amino-3-hydroxypropanoyl]amino}{2-[(5S)-5-(aminomethyl)-4-hydroxy-2-oxo-2,5-dihydro-1H-pyrrol-3-yl]-2-oxoethyl}malonic acid]
control of fungal growth (% reduction of growth in the test well as compared to untreated check) (Pyricularia oryzae; plate column (2), highest malonomicin concentration, lines A-G with compound of Formula I(a) dilution series, line H malonomicin alone): 90%
control of fungal growth (% reduction of growth in the test well as compared to untreated check) (Pyricularia oryzae; plate column (3) of malonomicin dilution series, lines A-G with compound of Formula I(a), line H malonomicin alone): 70%
control of fungal growth (% reduction of growth in the test well as compared to untreated check) (Pyricularia oryzae; plate column (4) of malonomicin dilution series, lines A-G with compound of Formula I(a), line H malonomicin alone): 70%
control of fungal growth (% reduction of growth in the test well as compared to untreated check) (Pyricularia oryzae; plate column (5) of malonomicin dilution series, lines A-G with compound of Formula I(a), line H malonomicin alone): 50%
control of fungal growth (% reduction of growth in the test well as compared to untreated check) (Pyricularia oryzae; plate column (6) of malonomicin dilution series, lines A-G with compound of Formula I(a), line H malonomicin alone): 50%
control of fungal growth (% reduction of growth in the test well as compared to untreated check) (Pyricularia oryzae; plate column (7) of malonomicin dilution series, lines A-G with compound of Formula I(a), line H malonomicin alone): 20%
control of fungal growth (% reduction of growth in the test well as compared to untreated check) (Pyricularia oryzae; plate column (8) of malonomicin dilution series, lines A-G with compound of Formula I(a), line H malonomicin alone): 20%
control of fungal growth (% reduction of growth in the test well as compared to untreated check) (Pyricularia oryzae; plate column (9) of malonomicin dilution series, lines A-G with compound of Formula I(a), line H malonomicin alone): 0%
control of fungal growth (% reduction of growth in the test well as compared to untreated check) (Pyricularia oryzae; plate column (10) of malonomicin dilution series, lines A-G with compound of Formula I(a), line H malonomicin alone): 0%
control of fungal growth (% reduction of growth in the test well as compared to untreated check) (Pyricularia oryzae; plate column (11), lowest malonomicin concentration, lines A-G with compound of Formula I(a), line H malonomicin alone): 0%

CC(C)CCCCCCCCCCC(=O)NC1C(=O)NC(CC(=O)O)C(=O)NC(C(O)CC(N)=O)C(=O)NC(CO)C(=O)N(C)C(CC(N)=O)C(=O)N(C)C(Cc2ccccc2)C(=O)NC(CCC(N)=O)C(=O)NC(CCC(=O)O)C(=O)OC1C (stereo not drawn) [Formula I(a)] ({Tridecanoyl(12-Me)}-TD[X1]S[NMeN][NMeF]QE; ester 1-C; configuration not given here)
inhibition of growth at 0.41 ppm (Zymoseptoria tritici; Table 2): 0%
inhibition of growth at 1.2 ppm (Zymoseptoria tritici; Table 2): 0%
inhibition of growth at 3.7 ppm (Zymoseptoria tritici; Table 2): 0%
inhibition of growth at 11 ppm (Zymoseptoria tritici; Table 2): 70%
inhibition of growth at 33 ppm (Zymoseptoria tritici; Table 2): 100%
inhibition of growth at 100 ppm (Zymoseptoria tritici; Table 2): 100%
inhibition of growth at 0.41 ppm (Zymoseptoria tritici; Table 3): 0%
inhibition of growth at 1.2 ppm (Zymoseptoria tritici; Table 3): 0%
inhibition of growth at 3.7 ppm (Zymoseptoria tritici; Table 3): 0%
inhibition of growth at 11 ppm (Zymoseptoria tritici; Table 3): 70%
inhibition of growth at 33 ppm (Zymoseptoria tritici; Table 3): 90%
inhibition of growth at 100 ppm (Zymoseptoria tritici; Table 3): 90%
% reduction of fungal growth ([1]; Table 4, 0.82 ppm): 0%
% reduction of fungal growth ([1]; Table 4, 2.5 ppm): 0%
% reduction of fungal growth ([1]; Table 4, 7.4 ppm): 0%
% reduction of fungal growth ([1]; Table 4, 22 ppm): 0%
% reduction of fungal growth ([1]; Table 4, 67 ppm): 90%
% reduction of fungal growth ([1]; Table 4, 200 ppm): 100%
% reduction of fungal growth ([1]; Table 5, 0.82 ppm): 0%
% reduction of fungal growth ([1]; Table 5, 2.5 ppm): 0%
% reduction of fungal growth ([1]; Table 5, 7.4 ppm): 0%
% reduction of fungal growth ([1]; Table 5, 22 ppm): 35%
% reduction of fungal growth ([1]; Table 5, 67 ppm): 90%
% reduction of fungal growth ([1]; Table 5, 200 ppm): 95%
% reduction of fungal growth (Phaeosphaeria nodorum; 0.82 ppm): 0%
% reduction of fungal growth (Phaeosphaeria nodorum; 2.5 ppm): 0%
% reduction of fungal growth (Phaeosphaeria nodorum; 7.4 ppm): 0%
% reduction of fungal growth (Phaeosphaeria nodorum; 22 ppm): 0%
% reduction of fungal growth (Phaeosphaeria nodorum; 67 ppm): 0%
% reduction of fungal growth (Phaeosphaeria nodorum; 200 ppm): 50%
control of fungal growth (% reduction of growth in the test well as compared to untreated check) (Pyricularia oryzae; plate column (1): compound of Formula I(a) alone, dilution series lines A (highest) to G): 20%
% reduction of fungal growth (Pyrenophora teres; 0.82 ppm): 0%
% reduction of fungal growth (Pyrenophora teres; 2.5 ppm): 0%
% reduction of fungal growth (Pyrenophora teres; 7.4 ppm): 0%
% reduction of fungal growth (Pyrenophora teres; 22 ppm): 0%
% reduction of fungal growth (Pyrenophora teres; 67 ppm): 60%
% reduction of fungal growth (Pyrenophora teres; 200 ppm): 80%
% reduction fungal growth (Botryotinia fuckeliana; Table 2, 0.41 ppm): 0%
% reduction fungal growth (Botryotinia fuckeliana; Table 2, 1.2 ppm): 0%
% reduction fungal growth (Botryotinia fuckeliana; Table 2, 3.7 ppm): 0%
% reduction fungal growth (Botryotinia fuckeliana; Table 2, 11 ppm): 0%
% reduction fungal growth (Botryotinia fuckeliana; Table 2, 33 ppm): 0%
% reduction fungal growth (Botryotinia fuckeliana; Table 2, 100 ppm): 50%
% reduction fungal growth (Botryotinia fuckeliana; Table 3, 3.7 ppm): 50%
% reduction fungal growth (Botryotinia fuckeliana; Table 3, 11 ppm): 50%
% reduction fungal growth (Botryotinia fuckeliana; Table 3, 33 ppm): 70%
% reduction fungal growth (Botryotinia fuckeliana; Table 3, 100 ppm): 70%
